ChEMBL document CHEMBL1201862, “PubChem BioAssay data set” (2004)
Calls of active or inactive are those of the source.

Tests used:
Large T antigen = Large T antigen (Simian virus 40, UniProt P03070); type: functional, Betapolyomavirus macacae;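 also: Confirmatory-stage PubChem screen for compounds that inhibit SV40 T antigen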
[1] = biological target: Induced myeloid leukemia cell differentiation protein Mcl-1 (Homo sapiens, UniProt Q07820); type: functional
[2] = biological target: Intestinal-type alkaline phosphatase (Homo sapiens, UniProt P09923); assay: activation of human intestinal alkaline phosphatase – biochemical, dose response (AID 488873); type: functional
Chain of Intestinal-type alkaline phosphatase (Homo sapiens, UniProt P09923) (P09923 whole entry): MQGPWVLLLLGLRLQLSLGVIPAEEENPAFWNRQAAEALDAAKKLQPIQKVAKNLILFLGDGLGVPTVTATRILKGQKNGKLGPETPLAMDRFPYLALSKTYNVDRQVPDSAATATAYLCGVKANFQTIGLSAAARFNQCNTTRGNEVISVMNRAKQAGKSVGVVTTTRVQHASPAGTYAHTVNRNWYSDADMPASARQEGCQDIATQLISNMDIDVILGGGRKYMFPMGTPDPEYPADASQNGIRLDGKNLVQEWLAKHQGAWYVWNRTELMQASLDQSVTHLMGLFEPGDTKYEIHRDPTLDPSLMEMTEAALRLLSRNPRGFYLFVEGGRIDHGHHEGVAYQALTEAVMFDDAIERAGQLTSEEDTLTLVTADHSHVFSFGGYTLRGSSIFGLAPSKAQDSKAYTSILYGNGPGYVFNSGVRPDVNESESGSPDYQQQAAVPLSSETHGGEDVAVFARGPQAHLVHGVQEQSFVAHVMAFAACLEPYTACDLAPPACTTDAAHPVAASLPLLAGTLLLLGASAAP

[3] = biological target: T1, Intestinal-type alkaline phosphatase (Mus musculus, UniProt P24822); assay: mouse intestinal alkaline phosphatase activators, dose response, biochemical, luminescence, uHTS hits (AID 488783); type: functional
T1 sequence (P24822 whole entry): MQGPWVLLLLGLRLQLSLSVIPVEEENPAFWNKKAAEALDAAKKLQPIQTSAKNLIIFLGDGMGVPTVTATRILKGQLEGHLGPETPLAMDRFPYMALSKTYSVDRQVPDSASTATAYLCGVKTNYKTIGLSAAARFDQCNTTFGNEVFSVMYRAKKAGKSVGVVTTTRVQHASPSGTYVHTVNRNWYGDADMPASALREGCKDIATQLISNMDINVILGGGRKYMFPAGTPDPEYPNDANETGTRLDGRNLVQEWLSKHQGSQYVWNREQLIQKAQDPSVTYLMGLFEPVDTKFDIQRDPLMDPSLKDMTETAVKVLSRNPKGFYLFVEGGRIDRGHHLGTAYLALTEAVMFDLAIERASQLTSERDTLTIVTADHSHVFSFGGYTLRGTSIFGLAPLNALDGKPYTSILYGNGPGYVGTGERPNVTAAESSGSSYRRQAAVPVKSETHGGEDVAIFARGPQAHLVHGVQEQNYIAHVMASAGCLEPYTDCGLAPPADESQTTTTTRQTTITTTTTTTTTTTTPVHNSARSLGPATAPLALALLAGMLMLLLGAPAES

[4] = biological target: T2, Alkaline phosphatase, tissue-nonspecific isozyme (Homo sapiens, UniProt P05186); assay: activation of tissue-nonspecific alkaline phosphatase – biochemical, TNAP isozyme, mouse IAP uHTS hits, selectivity assay for mouse IAP activator project, dose response (AID 488880); type: functional
T2 sequence (P05186 whole entry): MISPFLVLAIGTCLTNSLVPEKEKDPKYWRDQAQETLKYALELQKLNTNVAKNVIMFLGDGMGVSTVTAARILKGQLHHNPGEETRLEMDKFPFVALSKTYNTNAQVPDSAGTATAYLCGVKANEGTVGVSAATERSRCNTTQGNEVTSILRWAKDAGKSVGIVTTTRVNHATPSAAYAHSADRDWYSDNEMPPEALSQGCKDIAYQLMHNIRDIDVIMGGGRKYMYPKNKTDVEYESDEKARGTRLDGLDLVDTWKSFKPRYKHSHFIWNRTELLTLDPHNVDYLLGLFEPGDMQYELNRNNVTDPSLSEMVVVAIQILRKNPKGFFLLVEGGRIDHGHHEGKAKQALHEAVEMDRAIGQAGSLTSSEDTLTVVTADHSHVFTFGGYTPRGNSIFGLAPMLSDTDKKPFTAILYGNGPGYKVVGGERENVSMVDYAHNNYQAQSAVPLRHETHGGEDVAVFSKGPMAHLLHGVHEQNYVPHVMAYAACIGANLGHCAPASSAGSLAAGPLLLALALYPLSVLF

[5] = biological target: T3, DNA dC->dU-editing enzyme APOBEC-3A (Homo sapiens, UniProt P31941); assay: SAR analysis of small molecule inhibitors of APOBEC3A DNA Deaminase via a fluorescence-based single-stranded DNA deaminase assay - Set 2.; type: functional; conditions: read-out: IC50_Mean
T3 sequence (P31941 whole entry): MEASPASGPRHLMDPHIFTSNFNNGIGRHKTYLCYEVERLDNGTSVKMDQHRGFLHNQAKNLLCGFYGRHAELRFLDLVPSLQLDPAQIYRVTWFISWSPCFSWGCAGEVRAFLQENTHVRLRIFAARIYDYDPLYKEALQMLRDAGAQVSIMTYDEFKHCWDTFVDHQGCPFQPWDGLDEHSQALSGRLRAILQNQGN

[6] = biological target: T4, DNA dC->dU-editing enzyme APOBEC-3G (Homo sapiens, UniProt Q9HC16); assay: SAR analysis of small molecule inhibitors of APOBEC3G DNA Deaminase via a fluorescence-based single-stranded DNA deaminase assay - Set 2.; type: functional; conditions: read-out: IC50_Mean
T4 sequence (Q9HC16 whole entry): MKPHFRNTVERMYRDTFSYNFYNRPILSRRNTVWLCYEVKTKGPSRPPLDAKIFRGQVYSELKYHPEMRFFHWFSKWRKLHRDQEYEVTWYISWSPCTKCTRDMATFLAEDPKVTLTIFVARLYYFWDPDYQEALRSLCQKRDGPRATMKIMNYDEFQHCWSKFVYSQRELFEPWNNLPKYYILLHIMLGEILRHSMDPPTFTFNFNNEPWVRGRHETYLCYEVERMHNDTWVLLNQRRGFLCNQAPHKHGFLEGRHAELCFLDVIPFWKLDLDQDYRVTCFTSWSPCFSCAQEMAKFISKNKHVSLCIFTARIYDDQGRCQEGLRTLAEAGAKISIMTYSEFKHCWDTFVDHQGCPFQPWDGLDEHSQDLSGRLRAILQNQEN

[7] = biological target: T4, DNA dC->dU-editing enzyme APOBEC-3G; assay: inhibition of APOBEC3G ssDNA deamination – biochemical, fluorescence, single-stranded DNA substrate, SAR follow-up (AID 602136); type: functional; conditions: read-out: IC50_Mean
[8] = biological target: T3, DNA dC->dU-editing enzyme APOBEC-3A; assay: SAR analysis of small molecule inhibitors of APOBEC3A DNA Deaminase via a fluorescence-based single-stranded DNA deaminase assay.; type: functional; conditions: read-out: IC50_Mean
[9] = biological target: Nucleotide-binding oligomerization domain-containing protein 1 (Homo sapiens, UniProt Q9Y239); assay: SAR analysis of compounds that inhibit NOD1 - Set 3. [Related pubchem assays (depositor defined):AID1566, AID1575, AID1578, AID1849, AID1852, AID2333, AID2335, AID2466]; type: functional
Chain of Nucleotide-binding oligomerization domain-containing protein 1 (Q9Y239 whole entry, the tested form may be a part): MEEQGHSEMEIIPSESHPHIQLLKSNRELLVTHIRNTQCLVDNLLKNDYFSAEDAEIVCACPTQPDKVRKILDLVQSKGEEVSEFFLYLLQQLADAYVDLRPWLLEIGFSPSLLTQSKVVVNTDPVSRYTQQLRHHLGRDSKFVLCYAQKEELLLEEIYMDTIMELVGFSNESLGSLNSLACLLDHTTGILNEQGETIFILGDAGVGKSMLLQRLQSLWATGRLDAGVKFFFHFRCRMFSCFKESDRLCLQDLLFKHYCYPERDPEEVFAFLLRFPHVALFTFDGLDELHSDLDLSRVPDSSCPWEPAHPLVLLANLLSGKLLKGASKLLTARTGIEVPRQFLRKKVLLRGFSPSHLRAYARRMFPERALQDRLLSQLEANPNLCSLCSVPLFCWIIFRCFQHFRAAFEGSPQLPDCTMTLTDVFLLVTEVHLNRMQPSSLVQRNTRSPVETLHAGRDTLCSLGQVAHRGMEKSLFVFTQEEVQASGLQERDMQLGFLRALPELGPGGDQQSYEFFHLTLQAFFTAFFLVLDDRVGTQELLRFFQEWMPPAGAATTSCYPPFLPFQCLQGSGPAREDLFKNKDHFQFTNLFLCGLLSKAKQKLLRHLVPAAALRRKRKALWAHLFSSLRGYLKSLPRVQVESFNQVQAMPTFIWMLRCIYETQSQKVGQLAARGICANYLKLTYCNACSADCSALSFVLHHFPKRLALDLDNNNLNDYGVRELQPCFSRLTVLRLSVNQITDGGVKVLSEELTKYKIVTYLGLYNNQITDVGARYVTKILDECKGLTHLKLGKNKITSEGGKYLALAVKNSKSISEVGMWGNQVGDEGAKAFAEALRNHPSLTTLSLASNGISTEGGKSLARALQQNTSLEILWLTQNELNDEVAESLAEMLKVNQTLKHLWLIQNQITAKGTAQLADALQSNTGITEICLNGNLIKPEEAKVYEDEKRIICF

Tumor necrosis factor = Tumor necrosis factor (Homo sapiens, UniProt P01375); assay: analog potency on TNFa NF-kB signaling – cell-based, set 3, SAR follow-up (AID 2801); type: functional
Chain of Tumor necrosis factor (P01375 whole entry): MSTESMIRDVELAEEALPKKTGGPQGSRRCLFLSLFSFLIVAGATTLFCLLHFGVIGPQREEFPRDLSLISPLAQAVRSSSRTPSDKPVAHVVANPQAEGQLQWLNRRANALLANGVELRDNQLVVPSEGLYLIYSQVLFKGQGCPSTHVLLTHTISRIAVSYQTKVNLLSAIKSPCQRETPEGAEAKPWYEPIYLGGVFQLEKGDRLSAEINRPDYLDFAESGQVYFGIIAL

HEK293 = assay: SAR analysis of compounds that are cytotoxic to HEK293 - Set 3. [Related pubchem assays (depositor defined):AID1575, AID1578, AID1848, AID1849, AID2001, AID2333, AID2334, AID2335, AID2337, AID2469]; type: functional, cell-based; conditions: Homo sapiens
[10] = biological target: Nucleotide-binding oligomerization domain-containing protein 2 (Homo sapiens, UniProt Q9HC29); assay: inhibition of MDP-driven NOD2 NF-kB reporter – cell-based, set 3, SAR follow-up (AID 2799); type: functional
[11] = biological target: Sphingosine 1-phosphate receptor 5 (Homo sapiens, UniProt Q9H228); assay: (§1) Late-stage fluorescence-based dose-response cell-based assay to identify agonists of the Sphingosine 1-Phosphate Receptor 4 (S1P4): Sphingosine 1-Phosphate Receptor 5 (S1P5) counterscreen assay. [Related pubchem assays (depositor defined):AID1509, AID1523, AID1563, AID1686, AID1701, AID1801, AID463107, AID463225, AID504400]; type: functional
[12] = biological target: T5, Sphingosine 1-phosphate receptor 4 (Homo sapiens, UniProt O95977); assay: potency of S1P4 activators – cell-based, fluorescence, synthesized compounds, late-stage follow-up (AID 463107); type: functional
T5 sequence (O95977 whole entry): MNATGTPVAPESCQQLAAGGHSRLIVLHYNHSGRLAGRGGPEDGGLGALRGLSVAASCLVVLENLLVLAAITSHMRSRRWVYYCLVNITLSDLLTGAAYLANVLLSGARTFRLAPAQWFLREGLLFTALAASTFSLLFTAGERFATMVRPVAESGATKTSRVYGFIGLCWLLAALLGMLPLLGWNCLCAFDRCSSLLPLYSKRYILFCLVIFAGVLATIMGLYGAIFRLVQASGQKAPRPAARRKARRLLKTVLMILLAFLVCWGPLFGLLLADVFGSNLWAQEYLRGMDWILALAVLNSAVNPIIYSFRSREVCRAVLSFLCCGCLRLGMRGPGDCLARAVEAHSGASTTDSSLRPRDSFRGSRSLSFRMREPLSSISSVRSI

[13] = biological target: Sphingosine 1-phosphate receptor 1 (Homo sapiens, UniProt P21453); assay: as §1, with “1 (S1P1)” for “5 (S1P5)”; type: functional
[14] = biological target: Sphingosine 1-phosphate receptor 2 (Homo sapiens, UniProt O95136); assay: as §1, with “2 (S1P2)” for “5 (S1P5)”; type: functional
Chain of Sphingosine 1-phosphate receptor 2 (O95136 whole entry): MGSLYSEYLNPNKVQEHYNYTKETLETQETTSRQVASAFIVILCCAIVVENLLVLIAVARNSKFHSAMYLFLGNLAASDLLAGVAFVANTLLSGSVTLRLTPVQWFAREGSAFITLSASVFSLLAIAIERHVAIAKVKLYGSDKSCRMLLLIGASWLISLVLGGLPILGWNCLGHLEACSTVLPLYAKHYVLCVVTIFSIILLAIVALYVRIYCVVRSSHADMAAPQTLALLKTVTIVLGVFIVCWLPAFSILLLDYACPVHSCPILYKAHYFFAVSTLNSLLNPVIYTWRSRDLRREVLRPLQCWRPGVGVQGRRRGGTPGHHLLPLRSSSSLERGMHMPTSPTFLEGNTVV

[15] = biological target: Sphingosine 1-phosphate receptor 3 (Homo sapiens, UniProt Q99500); assay: as §1, with “3 (S1P3)” for “5 (S1P5)”; type: functional
Chain of Sphingosine 1-phosphate receptor 3 (Q99500 whole entry): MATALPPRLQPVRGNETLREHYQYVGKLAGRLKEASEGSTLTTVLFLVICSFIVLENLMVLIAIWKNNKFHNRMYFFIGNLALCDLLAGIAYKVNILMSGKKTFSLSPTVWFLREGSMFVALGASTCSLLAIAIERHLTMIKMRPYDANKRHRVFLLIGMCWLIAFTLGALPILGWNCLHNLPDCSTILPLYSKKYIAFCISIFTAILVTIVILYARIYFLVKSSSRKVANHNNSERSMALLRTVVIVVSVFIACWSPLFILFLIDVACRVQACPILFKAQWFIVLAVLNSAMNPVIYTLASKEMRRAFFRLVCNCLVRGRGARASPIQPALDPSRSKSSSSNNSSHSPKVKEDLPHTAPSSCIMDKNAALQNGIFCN

[16] = biological target: T6, Kappa-type opioid receptor (Homo sapiens, UniProt P41145); assay: kappa opioid receptor activation by imaging – image-based, set 3, SAR follow-up (AID 488833); type: functional
T6 sequence (P41145 whole entry): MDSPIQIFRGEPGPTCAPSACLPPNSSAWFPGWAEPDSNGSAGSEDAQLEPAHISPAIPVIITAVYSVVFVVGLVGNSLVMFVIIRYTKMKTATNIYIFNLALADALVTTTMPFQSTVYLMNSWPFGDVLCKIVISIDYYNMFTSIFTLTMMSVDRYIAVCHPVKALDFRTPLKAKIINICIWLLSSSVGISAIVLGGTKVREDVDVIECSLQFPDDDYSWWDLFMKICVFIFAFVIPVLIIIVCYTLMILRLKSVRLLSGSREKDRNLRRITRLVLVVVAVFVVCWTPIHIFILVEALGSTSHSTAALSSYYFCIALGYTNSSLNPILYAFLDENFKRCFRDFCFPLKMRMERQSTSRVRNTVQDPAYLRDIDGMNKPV

Mu-type opioid receptor = Mu-type opioid receptor (Homo sapiens, UniProt P35372); assay: SAR Analysis of Agonists of the MOR Receptor using an Image-Based Assay - Set 3. [Related pubchem assays (depositor defined):AID1777, AID1785, AID1786, AID1966, AID2133, AID2136, AID2284, AID2285, AID2352]; type: functional
Chain of Mu-type opioid receptor (P35372 whole entry): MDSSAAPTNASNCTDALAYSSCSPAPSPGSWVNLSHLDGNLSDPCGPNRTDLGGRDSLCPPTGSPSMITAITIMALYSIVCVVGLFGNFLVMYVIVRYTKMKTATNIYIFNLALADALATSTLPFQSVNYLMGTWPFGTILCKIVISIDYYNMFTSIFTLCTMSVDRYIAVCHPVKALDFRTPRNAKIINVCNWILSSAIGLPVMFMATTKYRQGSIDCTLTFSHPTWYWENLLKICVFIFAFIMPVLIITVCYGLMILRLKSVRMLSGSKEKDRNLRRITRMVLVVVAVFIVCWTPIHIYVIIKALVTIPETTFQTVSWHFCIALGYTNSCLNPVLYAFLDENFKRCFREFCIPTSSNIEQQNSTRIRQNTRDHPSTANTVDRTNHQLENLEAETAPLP

[17] = biological target: Delta-type opioid receptor (Homo sapiens, UniProt P41143); assay: SAR Analysis of Agonists of the DOR Receptor using an Image-Based Assay - Set 3. [Related pubchem assays (depositor defined):AID1777, AID1786]; type: functional
[18] = biological target: T6, Kappa-type opioid receptor; assay: SAR analysis of small molecule agonists of the kappa opioid receptor via a luminescent beta-arrestin assay - Set 3. [Related pubchem assays (depositor defined):AID1777, AID1785, AID1786, AID1966, AID2133, AID2136, AID2284, AID2500]; type: functional
[19] = biological target: T7, Tyrosine-protein phosphatase non-receptor type 7 (Homo sapiens, UniProt P35236); type: functional
T7 sequence (P35236 whole entry): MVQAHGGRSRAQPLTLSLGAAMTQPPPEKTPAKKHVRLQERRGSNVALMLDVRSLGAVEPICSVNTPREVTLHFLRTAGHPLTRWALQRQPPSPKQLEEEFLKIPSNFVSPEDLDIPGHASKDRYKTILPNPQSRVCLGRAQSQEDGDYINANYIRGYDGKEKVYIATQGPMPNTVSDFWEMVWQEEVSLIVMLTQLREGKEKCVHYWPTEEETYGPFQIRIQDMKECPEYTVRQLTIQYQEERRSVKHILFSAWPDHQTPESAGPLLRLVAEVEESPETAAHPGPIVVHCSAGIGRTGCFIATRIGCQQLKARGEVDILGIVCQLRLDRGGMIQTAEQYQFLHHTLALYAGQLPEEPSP

[20] = biological target: T8, Tyrosine-protein phosphatase non-receptor type 22 (Homo sapiens, UniProt Q9Y2R2); type: functional
T8 sequence (Q9Y2R2 whole entry): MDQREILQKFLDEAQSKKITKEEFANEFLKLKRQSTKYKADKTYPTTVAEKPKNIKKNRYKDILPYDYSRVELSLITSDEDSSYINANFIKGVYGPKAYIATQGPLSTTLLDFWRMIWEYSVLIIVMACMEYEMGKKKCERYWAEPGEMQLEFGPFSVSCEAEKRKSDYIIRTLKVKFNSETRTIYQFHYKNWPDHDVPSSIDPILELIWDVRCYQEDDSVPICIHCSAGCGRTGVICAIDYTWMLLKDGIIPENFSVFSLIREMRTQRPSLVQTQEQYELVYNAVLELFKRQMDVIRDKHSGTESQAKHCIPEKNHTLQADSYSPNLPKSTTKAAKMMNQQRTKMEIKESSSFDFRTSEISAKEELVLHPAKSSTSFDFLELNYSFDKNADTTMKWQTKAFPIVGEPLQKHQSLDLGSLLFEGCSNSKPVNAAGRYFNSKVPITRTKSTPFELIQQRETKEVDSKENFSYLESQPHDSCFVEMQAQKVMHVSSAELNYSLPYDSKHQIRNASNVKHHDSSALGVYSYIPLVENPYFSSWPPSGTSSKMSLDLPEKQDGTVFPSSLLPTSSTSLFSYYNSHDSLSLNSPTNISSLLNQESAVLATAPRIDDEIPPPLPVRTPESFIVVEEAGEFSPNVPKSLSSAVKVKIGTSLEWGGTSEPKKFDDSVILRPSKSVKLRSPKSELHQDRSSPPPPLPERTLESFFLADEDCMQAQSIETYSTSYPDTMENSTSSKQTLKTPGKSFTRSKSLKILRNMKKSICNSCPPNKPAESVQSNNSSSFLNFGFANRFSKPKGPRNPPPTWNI

[21] = biological target: T8, Tyrosine-protein phosphatase non-receptor type 22; type: functional; remark: listed apart in the source
[22] = biological target: T9, RNA-binding protein pos-1 (Caenorhabditis elegans, UniProt G5EF15); assay: disruptors of C. elegans POS-1 RNA interaction – biochemical, fluorescence polarization, dose response (AID 1964);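 also: purified POS-1 fused to maltose binding protein made in E. coli; potency of compounds blocking POS-1 binding to fluorescent RNA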
T9 sequence (G5EF15 whole entry): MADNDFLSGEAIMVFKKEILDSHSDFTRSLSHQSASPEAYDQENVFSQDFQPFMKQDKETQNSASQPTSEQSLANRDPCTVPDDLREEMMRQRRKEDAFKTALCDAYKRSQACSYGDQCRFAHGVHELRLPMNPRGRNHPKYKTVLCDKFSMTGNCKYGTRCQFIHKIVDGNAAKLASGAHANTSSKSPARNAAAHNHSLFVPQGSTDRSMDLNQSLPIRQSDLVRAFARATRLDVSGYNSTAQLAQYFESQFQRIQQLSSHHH

[23] = biological target: T10, Zinc finger protein mex-5 (Caenorhabditis elegans, UniProt Q9XUB2); assay: potency of MEX-5 RNA-binding blockers – biochemical, C. elegans, fluorescence polarization, dose response (AID 1960)
T10 sequence (Q9XUB2 whole entry): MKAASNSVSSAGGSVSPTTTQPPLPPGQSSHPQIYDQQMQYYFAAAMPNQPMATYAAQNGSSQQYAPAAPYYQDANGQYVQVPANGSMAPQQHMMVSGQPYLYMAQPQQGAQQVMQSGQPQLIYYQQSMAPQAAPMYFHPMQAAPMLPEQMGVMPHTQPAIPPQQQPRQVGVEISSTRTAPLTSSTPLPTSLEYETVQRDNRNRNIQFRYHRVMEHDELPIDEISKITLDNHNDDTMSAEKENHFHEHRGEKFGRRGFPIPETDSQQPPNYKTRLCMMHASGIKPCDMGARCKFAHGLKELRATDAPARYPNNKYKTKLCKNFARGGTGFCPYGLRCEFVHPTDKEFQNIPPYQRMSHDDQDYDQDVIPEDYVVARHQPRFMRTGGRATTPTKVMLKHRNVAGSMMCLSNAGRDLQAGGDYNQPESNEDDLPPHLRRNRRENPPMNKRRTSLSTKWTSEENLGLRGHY

[24] = biological target: T1, Intestinal-type alkaline phosphatase; assay: PubChem AID 488785; type: functional
[25] = biological target: T2, Alkaline phosphatase, tissue-nonspecific isozyme; assay: TNAP enzyme inhibition by screening hits, dose response, selectivity assay for mouse IAP inhibitor project, biochemical, human TNAP, uHTS hits (AID 488906); type: functional

Chain of Induced myeloid leukemia cell differentiation protein Mcl-1 (Q07820 whole entry): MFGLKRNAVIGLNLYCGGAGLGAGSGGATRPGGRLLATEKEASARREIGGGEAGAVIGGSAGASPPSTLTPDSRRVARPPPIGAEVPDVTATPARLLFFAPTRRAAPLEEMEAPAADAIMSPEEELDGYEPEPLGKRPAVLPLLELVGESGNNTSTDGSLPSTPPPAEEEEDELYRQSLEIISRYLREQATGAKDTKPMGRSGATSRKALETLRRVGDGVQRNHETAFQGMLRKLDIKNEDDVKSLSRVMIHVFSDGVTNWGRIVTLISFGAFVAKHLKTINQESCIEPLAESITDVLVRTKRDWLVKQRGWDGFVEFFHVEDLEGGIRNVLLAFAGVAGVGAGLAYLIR

O=C1NC(=S)NC(=O)C1=Cc1ccc2c(c1)CCN2CCCCl
IC50 (Large T antigen): 28.8 µM (active) | IC50 [1]: > 54 µM (active) | EC50 [2]: 96.3 µM (active) | EC50 [3]: 76.6 µM (active) | EC50 [4]: 55.5 µM (active) | IC50 [5]: 6.63 µM (active) | IC50 [6]: 4.14 µM (active) | IC50 [7]: 2.91 µM (active) | IC50 [8]: 9.27 µM (active)

N#Cc1ccc(S(=O)(=O)n2c(N)nc3ccccc32)cc1
IC50 [9]: > 20 µM (inactive) | IC50 (Tumor necrosis factor): > 20 µM (inactive) | IC50 (HEK293): > 20 µM (inactive) | IC50 [10]: > 20 µM (inactive)

C/N=C1\SC(=Cc2cc(C)n(Cc3c(F)cccc3F)c2C)C(=O)N1OC
EC50 [11]: 0.339 µM (active) | EC50 [12]: 0.0886 µM (active) | EC50 [13]: 0.113 µM (active) | EC50 [14]: > 50 µM (inactive) | EC50 [15]: > 50 µM (inactive)

Cc1cc(C)c(CSc2nnc(-c3ccccn3)n2Cc2cccs2)c(C)c1
EC50 [16]: 9.5 µM (active) | EC50 (Mu-type opioid receptor): > 32 µM (inactive) | EC50 [17]: > 32 µM (inactive) | EC50 [18]: > 20 µM (inactive)

N/C(=N\N=C\c1ccc2c(c1)OCO2)SC1CC(=O)N(c2ccc(C(=O)O)cc2)C1=O (stereo not given)
IC50 [19]: 7.33 µM (active) | IC50 [20]: 7.65 µM (active) | IC50 [21]: 8.58 µM (active)

O=C(O)Cc1ccc(O)c(O)c1 [3,4-DIHYDROXYPHENYLACETIC ACID]
EC50 [22]: 49.8 µM (active) | EC50 [23]: 28.9 µM (active) | EC50 [2]: > 100 µM (inactive) | IC50 [24]: 4.17 µM (active) | IC50 [25]: > 100 µM (inactive)
